One assay has as its target T1, Human Calpain 1/NS1 (Homo sapiens, UniProt P07384).
T1 sequence (P07384 1-714): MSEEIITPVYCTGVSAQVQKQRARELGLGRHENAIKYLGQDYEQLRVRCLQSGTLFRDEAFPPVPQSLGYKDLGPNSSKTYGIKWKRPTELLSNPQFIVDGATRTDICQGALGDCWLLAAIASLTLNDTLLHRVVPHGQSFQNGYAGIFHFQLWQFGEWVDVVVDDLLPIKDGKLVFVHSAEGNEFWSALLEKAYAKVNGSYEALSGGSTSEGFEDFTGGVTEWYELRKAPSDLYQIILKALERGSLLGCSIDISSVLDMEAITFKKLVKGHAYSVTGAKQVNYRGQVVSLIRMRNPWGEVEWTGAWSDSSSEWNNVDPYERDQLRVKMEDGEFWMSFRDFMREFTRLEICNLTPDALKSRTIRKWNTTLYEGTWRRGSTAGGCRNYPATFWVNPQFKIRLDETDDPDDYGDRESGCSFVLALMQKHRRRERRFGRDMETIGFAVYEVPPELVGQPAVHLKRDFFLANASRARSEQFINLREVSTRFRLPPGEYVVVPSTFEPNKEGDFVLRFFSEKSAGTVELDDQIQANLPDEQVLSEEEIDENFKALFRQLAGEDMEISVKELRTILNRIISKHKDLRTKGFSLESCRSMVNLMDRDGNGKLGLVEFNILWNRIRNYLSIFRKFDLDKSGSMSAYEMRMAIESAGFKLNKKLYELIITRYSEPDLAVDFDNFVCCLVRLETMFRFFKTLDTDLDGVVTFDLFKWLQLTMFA
T1 sequence (P04632 1-268 partner): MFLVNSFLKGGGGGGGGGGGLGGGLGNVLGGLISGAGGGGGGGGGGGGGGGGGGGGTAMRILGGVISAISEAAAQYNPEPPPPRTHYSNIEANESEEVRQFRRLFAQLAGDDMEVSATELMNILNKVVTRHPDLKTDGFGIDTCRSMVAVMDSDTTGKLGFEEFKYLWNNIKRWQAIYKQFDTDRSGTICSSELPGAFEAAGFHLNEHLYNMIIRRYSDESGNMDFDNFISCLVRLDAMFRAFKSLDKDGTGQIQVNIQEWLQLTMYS
The assay is described as follows: Biochemical inhibition of calpain 1, continuous fluorescence (FRET substrate) assay. Conditions: mean, read-out: Human Calpain 1/NS1 IC50 (nM)_MEAN. The protocol: (§1) Calpain 1, 2, and 9 activity and inhibition thereof are assessed by means of a continuous fluorescence assay. The SensoLyte 520 Calpain substrate (Anaspec Inc) is optimized for detecting calpain activity. This substrate contains a novel internally quenched 5-FAM/QXL™ 520 FRET pair. Calpains 1, 2, and 9 cleave the FRET substrate into two separate fragments resulting in an increase of 5-FAM fluorescence that is proportional to calpain activity.
(§2) Assays are typically setup in black 384-well plates using automated liquid handling as follows. Calpain assay base buffer typically contains 50 mM Tris, pH˜7.5, 100 mM NaCl and 1 mM DTT. Inhibitors are serially diluted in DMSO and used to setup 2× mixtures with calpains in the aforementioned buffer. After incubation at ambient temperature (25C), the reaction is initiated by adding a 2× mix of the fluorescent peptide substrate and CaCl2) (required for in-situ calpain activation) in the same buffer. Reaction progress curve data are typically collected for 10 min using excitation/emission wavelengths of 490 nm/520 nm on SpectraMax i3× or the FLIPR-Tetra plate readers (Molecular Devices Inc). Reaction rates were calculated from progress curve slopes typically over 1-5 min. Dose response curves (rate vs. log inhibitor concentration) were typically fit to a 4-parameter logistic function to extract IC50 values.

A further assay addresses T2, Human Calpain 2/NS1 (Homo sapiens, UniProt P17655).
T2 sequence (P17655 1-700): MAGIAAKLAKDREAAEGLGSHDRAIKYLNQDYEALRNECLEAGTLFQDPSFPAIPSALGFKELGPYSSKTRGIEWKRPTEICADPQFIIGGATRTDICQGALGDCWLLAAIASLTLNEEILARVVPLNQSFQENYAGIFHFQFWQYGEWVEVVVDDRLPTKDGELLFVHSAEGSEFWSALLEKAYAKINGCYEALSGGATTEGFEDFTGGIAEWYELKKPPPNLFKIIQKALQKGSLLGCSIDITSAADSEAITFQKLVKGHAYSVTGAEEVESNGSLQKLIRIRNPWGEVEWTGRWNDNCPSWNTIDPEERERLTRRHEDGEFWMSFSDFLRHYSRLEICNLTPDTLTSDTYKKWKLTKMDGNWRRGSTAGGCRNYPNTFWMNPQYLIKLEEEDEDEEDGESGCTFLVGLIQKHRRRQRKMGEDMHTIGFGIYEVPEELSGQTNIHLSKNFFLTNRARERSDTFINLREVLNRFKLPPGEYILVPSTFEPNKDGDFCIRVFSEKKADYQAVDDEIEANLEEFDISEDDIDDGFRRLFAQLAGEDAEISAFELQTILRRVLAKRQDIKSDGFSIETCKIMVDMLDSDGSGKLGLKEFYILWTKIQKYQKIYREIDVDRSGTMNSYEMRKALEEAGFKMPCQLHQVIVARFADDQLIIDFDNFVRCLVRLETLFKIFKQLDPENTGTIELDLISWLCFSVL
T2 sequence (P04632 1-268 partner): T1 sequence (P04632 1-268 partner)
The assay is described as follows: Biochemical inhibition of calpain 2, continuous fluorescence (FRET substrate) assay. Conditions: mean, read-out: Human Calpain 2/NS1 IC50 (nM)_MEAN. As for the experimental part:
as §1, §2

The target in another assay is T3, Human Calpain 9/NS1 (Homo sapiens, UniProt O14815).
T3 sequence (O14815 1-690): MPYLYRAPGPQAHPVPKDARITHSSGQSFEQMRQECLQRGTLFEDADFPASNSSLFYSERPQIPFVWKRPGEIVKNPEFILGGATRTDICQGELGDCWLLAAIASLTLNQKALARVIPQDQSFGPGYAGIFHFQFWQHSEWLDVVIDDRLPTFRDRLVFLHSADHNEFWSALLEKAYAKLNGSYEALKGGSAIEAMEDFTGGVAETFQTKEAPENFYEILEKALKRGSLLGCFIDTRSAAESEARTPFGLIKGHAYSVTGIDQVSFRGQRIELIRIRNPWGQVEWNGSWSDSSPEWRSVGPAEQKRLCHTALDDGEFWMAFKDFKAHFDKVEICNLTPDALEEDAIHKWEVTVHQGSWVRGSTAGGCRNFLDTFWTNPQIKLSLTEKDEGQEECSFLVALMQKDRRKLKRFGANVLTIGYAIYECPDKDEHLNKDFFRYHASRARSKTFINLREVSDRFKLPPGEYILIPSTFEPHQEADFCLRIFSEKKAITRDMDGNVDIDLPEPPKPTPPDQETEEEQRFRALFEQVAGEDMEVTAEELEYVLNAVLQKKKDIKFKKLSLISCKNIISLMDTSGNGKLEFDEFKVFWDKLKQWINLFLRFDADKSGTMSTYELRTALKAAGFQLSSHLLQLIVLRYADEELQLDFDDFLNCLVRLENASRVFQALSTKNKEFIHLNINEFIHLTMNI
T3 sequence (P04632 1-268 partner): T1 sequence (P04632 1-268 partner)
The assay is described as follows: Biochemical inhibition of calpain 9, continuous fluorescence (FRET substrate) assay. As to conditions: mean, read-out: Human Calpain 9/NS1 IC50 (nM)_MEAN. As for the experimental part:
as §1, §2

The structures appear in SMILES notation. A value given as a limit tells only on which side of the number the result lay.

As to `O=C(NC1CC1)C(=O)[C@@H]1C/C=C/COCCOCc2ccccc2C(=O)N1` [Compound 79, (S,E)-N-cyclopropyl-2-oxo-2-(12-oxo-1,3,4,6,9,10,11,12-octahydrobenzo[f][1,4]dioxa[9]azacyclotetradecin-10-yl)acetamide], the results for the IC50 at Human Calpain 1/NS1, at Human Calpain 2/NS1 and at Human Calpain 9/NS1 were more than 10000 nM, more than 10000 nM and 3000 to 10000 nM, respectively.

As for `CCOC(=O)CCNC(=O)C(=O)[C@@H]1C/C=C/COCCOCc2ccccc2C(=O)N1` [Compound 63, Ethyl (S,E)-3-(2-oxo-2-(12-oxo-1,3,4,6,9,10,11,12-octahydrobenzo[f][1,4]dioxa[9]azacyclotetradecin-10-yl)acetamido)propanoate], the IC50 at Human Calpain 1/NS1, at Human Calpain 2/NS1 and on Human Calpain 9/NS1 was more than 10000 nM throughout.

On to `CCNC(=O)C(=O)[C@@H]1C/C=C/CCCCCCc2ccccc2C(=O)N1` [Compound 17, (S,E)-N-ethyl-2-oxo-2-(1-oxo-1,2,3,4,7,8,9,10,11,12-decahydrobenzo[c][1]azacyclotetradecin-3-yl)acetamide], for which the IC50 at Human Calpain 1/NS1, on Human Calpain 2/NS1 and at Human Calpain 9/NS1 was more than 10000 nM in each case.

For `O=C[C@@H]1CC=CCCOc2cccc(c2)-c2ccccc2C(=O)N1` [Compound 29, (S)-11-Oxo-3-oxa-10-aza-1(1,2),2(1,3)-dibenzenacycloundecaphan-6-ene-9-carbaldehyde], the IC50 on Human Calpain 1/NS1, at Human Calpain 2/NS1 and at Human Calpain 9/NS1 was less than 3000 nM throughout.

Consider `O=C[C@@H]1CCCCCCOc2ccnc(n2)-c2ccccc2C(=O)N1` [Compound 133, (S)-3-oxo-12-oxa-4-aza-1(2,4)-pyrimidina-2(1,2)-benzenacyclododecaphane-5-carbaldehyde], for which the IC50 at Human Calpain 1/NS1, on Human Calpain 2/NS1 and on Human Calpain 9/NS1 was less than 3000 nM throughout.

With `O=C[C@@H]1CCCCCOc2ccc(F)c(c2)-c2ccccc2C(=O)N1` [Compound 146, (S)-2^6-fluoro-11-oxo-3-oxa-10-aza-1(1,2),2(1,3)-dibenzenacycloundecaphane-9-carbaldehyde], the IC50 at Human Calpain 1/NS1, at Human Calpain 2/NS1 and at Human Calpain 9/NS1 was less than 3000 nM in each case.

As to `O=C(NCc1ccccc1)C(=O)[C@@H]1C/C=C\COCCOCc2ccccc2C(=O)N1` [Compound 3, (S,Z)—N-benzyl-2-oxo-2-(12-oxo-1,3,4,6,9,10,11,12-octahydrobenzo[f][1,4]dioxa[9]azacyclotetradecin-10-yl)acetamide], the IC50 was more than 10000 nM at Human Calpain 1/NS1, more than 10000 nM on Human Calpain 2/NS1 and less than 3000 nM at Human Calpain 9/NS1.

As for `O=C(NC1CC1)C(=O)[C@@H]1Cc2ccc(cc2)CCCCc2cccc(c2)-c2ccn(n2)-c2ncccc2C(=O)N1` [Compound 74, N-cyclopropyl-2-oxo-2-((10S,E)-12-oxo-2′H-11-aza-1(2,3)-pyridina-2(1,3)-pyrazola-3(1,3),8(1,4)-dibenzenacyclododecaphane-10-yl)acetamide], the IC50 on Human Calpain 1/NS1, on Human Calpain 2/NS1 and on Human Calpain 9/NS1 was less than 3000 nM in each case.

Consider `O=C[C@@H]1Cc2ccccc2CCCCCCOc2ccccc2C(=O)N1` [Compound 20, (S)-19-Oxo-6,7,8,9,10,11,16,17,18,19-decahydrodibenzo[b,h][1]oxa[5]aza-cyclopentadecine-17-carbaldehyde], for which the IC50 on Human Calpain 1/NS1 was 3000 to 10000 nM; on Human Calpain 2/NS1, less than 3000 nM; on Human Calpain 9/NS1, less than 3000 nM.

For the compound `O=C[C@@H]1Cc2ccc(cc2)OCCCCOc2cccc(c2)-c2ccn(n2)-c2ncccc2C(=O)N1` [Compound 46, (6S,E)-4-oxo-2^1H-9,14-dioxa-5-aza-3(2,3)-pyridina-2(3,1)-pyrazola-1(1,3),8(1,4)-dibenzenacyclotetradecaphane-6-carbaldehyde], the IC50 on Human Calpain 1/NS1, at Human Calpain 2/NS1 and on Human Calpain 9/NS1 was less than 3000 nM throughout.

For the compound `NC(=O)C(=O)[C@@H]1CCCCCOc2ccc(F)c(c2)-c2ccccc2C(=O)N1` [Compound 148, (S)-2-(2^6-fluoro-11-oxo-3-oxa-10-aza-1(1,2),2(1,3)-dibenzena-cycloundecaphane-9-yl)-2-oxoacetamide], the IC50 on Human Calpain 1/NS1, on Human Calpain 2/NS1 and on Human Calpain 9/NS1 was less than 3000 nM in each case.

`CCCCNC(=O)C(=O)[C@@H]1C/C=C\COCCOCc2ccccc2C(=O)N1` [Compound 59, (S,Z)—N-butyl-2-oxo-2-(12-oxo-1,3,4,6,9,10,11,12-octahydrobenzo[f][1,4]dioxa[9]azacyclotetradecin-10-yl)acetamide]: the IC50 at Human Calpain 1/NS1 is more than 10000 nM; on Human Calpain 2/NS1, more than 10000 nM; at Human Calpain 9/NS1, less than 3000 nM.

`O=C[C@@H]1CCCCCCCCCCc2ccccc2C(=O)N1` [Compound 28, (S)-1-Oxo-2,3,4,5,6,7,8,9,10,11,12,13-dodecahydro-1h-benzo[c][1]aza-cyclopentadecine-3-carbaldehyde]: the IC50 at Human Calpain 1/NS1, at Human Calpain 2/NS1 and at Human Calpain 9/NS1 was less than 3000 nM each time.

On to `CN(C)CCNC(=O)C(=O)C1CCCCOCCOCc2ccccc2C(=O)N1` (stereo not drawn) [Compound 110, N-(2-(dimethylamino)ethyl)-2-oxo-2-(12-oxo-1,3,4,6,7,8,9,10,11,12-decahydrobenzo[f][1,4]dioxa[9]azacyclotetradecin-10-yl)acetamide], for which the IC50 on Human Calpain 1/NS1 is more than 10000 nM; at Human Calpain 2/NS1, more than 10000 nM; on Human Calpain 9/NS1 it was 3000 to 10000 nM.
